Where “and” joins values, the source holds several entries; their conditions need not be identical. Equal values may be shown once. Toxic doses and inconclusive results are not listed. How the source made its calls: active means survival T/C of 150% or more; inactive means T/C below 125% in these data.
System: B6C3F1 mice, B16 melanoma ip, median survival T/C
Test: NCI In Vivo Anticancer Drug Screen. Data for tumor model B16 Melanoma (intraperitoneal) in B6C3F1 mice
Settings: endpoint: median survival time, schedule: Q01DX009 (ip), higher = longer survival
Method in brief: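 Mice bearing transplanted tumor were dosed with compound or vehicle, and survival was recorded. Activity is expressed as the treated-group measurement (T) divided by the vehicle control measurement (C).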

[1] = dose: 1.56 mg/kg/injection, vehicle: saline with Tween-80
[2] = dose: 6.25 mg/kg/injection, vehicle: saline with Tween-80
[3] = dose: 6.25 mg/kg/injection, vehicle: Klucel (hydroxypropylcellulose) (HPC)
[4] = dose: 12.5 mg/kg/injection, vehicle: Klucel (hydroxypropylcellulose) (HPC)
[5] = dose: 25.0 mg/kg/injection, vehicle: Klucel (hydroxypropylcellulose) (HPC)
[6] = dose: 12.5 mg/kg/injection, vehicle: saline
[7] = dose: 25.0 mg/kg/injection, vehicle: saline
[8] = dose: 100.0 mg/kg/injection, vehicle: saline
[9] = dose: 50.0 mg/kg/injection, vehicle: saline with Tween-80
[10] = dose: 100.0 mg/kg/injection, vehicle: saline with Tween-80
[11] = dose: 200.0 mg/kg/injection, vehicle: saline with Tween-80
[12] = dose: 400.0 mg/kg/injection, vehicle: saline with Tween-80
[13] = dose: 12.5 mg/kg/injection, vehicle: saline with Tween-80
[14] = dose: 25.0 mg/kg/injection, vehicle: saline with Tween-80
[15] = dose: 50.0 mg/kg/injection, vehicle: saline
[16] = dose: 200.0 mg/kg/injection, vehicle: saline
[17] = dose: 400.0 mg/kg/injection, vehicle: saline

Measured: T/C

COc1ccc(C(=O)C(=O)c2ccc(OC)c(OC)c2)cc1OC
inactive: dose: 1.56 mg/kg/injection, vehicle: saline 101 % of control | dose: 3.13 mg/kg/injection, vehicle: saline 99 % of control | dose: 6.25 mg/kg/injection, vehicle: saline 97 % of control

CN(C)CSCN(C)C
inactive: [1] 97 % of control | dose: 3.13 mg/kg/injection, vehicle: saline with Tween-80 89 % of control | [2] 101 % of control

CC1=C(CCC(=O)O)c2cc3nc(cc4[nH]c(cc5[nH]c(cc1n2)c(C)c5C(C)O)c(C)c4C(C)O)C(C)=C3CCC(=O)O (stereo not given)
inactive: dose: 3.13 mg/kg/injection, vehicle: Klucel (hydroxypropylcellulose) (HPC) 111 % of control | [3] 115 % of control | [4] 107 % of control | [5] 104 % of control

COC(OC(CO)C(O)S(=O)(=O)O)C(O)S(=O)(=O)O (stereo not given)
inactive: [6] 108 % of control | [7] 115 % of control
active: [8] 155 % of control

Oc1ccc2ccccc2c1N=Nc1ccc(F)cc1
inactive: [9] 111 % of control and 113 % of control | [10] 120 % of control | [11] 109 % of control and 123 % of control | [12] 113 % of control and 106 % of control

COC(=O)[C@@]12OC[C@]34[C@H]([C@@H](O)[C@@H]1O)[C@@]1(C)CC(=O)C(O)=C(C)[C@@H]1C[C@H]3OC(=O)[C@H](OC(=O)/C=C(\C)C(C)CO)[C@@H]24 (stereo not given in full)
active: dose: 6.0 mg/kg/injection, vehicle: saline + alcohol 174 % of control | dose: 8.0 mg/kg/injection, vehicle: saline + alcohol 161 % of control and 173 % of control

Oc1c(Cl)cc(Cl)cc1C1N2CCCCC2C2c3cccn3-c3ccccc3N21 (stereo not given)
inactive: [4] 101 % of control | [5] 98 % of control | dose: 50.0 mg/kg/injection, vehicle: Klucel (hydroxypropylcellulose) (HPC) 104 % of control | dose: 100.0 mg/kg/injection, vehicle: Klucel (hydroxypropylcellulose) (HPC) 98 % of control | dose: 200.0 mg/kg/injection, vehicle: Klucel (hydroxypropylcellulose) (HPC) 87 % of control

O=C1CN(Cc2ccc3c(c2)OCO3)NO1
inactive: [2] 103 % of control and 106 % of control | [13] 109 % of control and 95 % of control | [14] 112 % of control and 107 % of control | [9] 115 % of control and 117 % of control | [10] 115 % of control

O=C1C=CN(C2OC(CO)C(O)C2O)C(=O)C1 (stereo not given)
inactive: [7] 97 % of control | [15] 108 % of control | [8] 102 % of control | [16] 105 % of control | [17] 115 % of control

Cc1cc(=O)n2c3c(c4c(cc13)c(CN(C)C)cc(=O)n4C)OC2
inactive: [2] 105 % of control | [13] 98 % of control | [14] 100 % of control | [9] 111 % of control

Cn1c2ccccc2c2ccc3c(c21)C(=O)C=CC3=O
inactive: [3] 96 % of control | [4] 107 % of control

c1ccc(CN2CCOC2)cc1
inactive: [6] 100 % of control and 101 % of control | [7] 101 % of control and 108 % of control | [15] 98 % of control and 102 % of control | [8] 112 % of control and 102 % of control | [16] 113 % of control

CC[C@]1(O)C[C@H](OC2CC(N(C)C)C(OC3CC(O)C(O)C(C)O3)C(C)O2)c2c(cc3c(c2O)C(=O)c2c(O)ccc(O)c2C3=O)[C@H]1C(=O)OC (stereo not given in full)
active: dose: 1.0 mg/kg/injection, vehicle: Klucel (hydroxypropylcellulose) (HPC) 177 % of control | dose: 2.0 mg/kg/injection, vehicle: Klucel (hydroxypropylcellulose) (HPC) 191 % of control
inactive: dose: 0.12 mg/kg/injection, vehicle: Klucel (hydroxypropylcellulose) (HPC) 106 % of control | dose: 0.25 mg/kg/injection, vehicle: Klucel (hydroxypropylcellulose) (HPC) 115 % of control

CN(C)N=Nc1ccc2c(c1)N(C)c1ccc(Cl)cc1S2
inactive: dose: 6.25 mg/kg/injection, vehicle: other 99 % of control | dose: 12.5 mg/kg/injection, vehicle: other 109 % of control | dose: 25.0 mg/kg/injection, vehicle: other 114 % of control | dose: 50.0 mg/kg/injection, vehicle: other 110 % of control | dose: 100.0 mg/kg/injection, vehicle: other 114 % of control

O=[N+]([O-])c1nccn1CC(O)CO (stereo not given)
inactive: [6] 91 % of control and 101 % of control | [7] 102 % of control and 107 % of control | [15] 95 % of control and 97 % of control | [8] 111 % of control and 93 % of control | [16] 95 % of control and 98 % of control | [17] 91 % of control and 107 % of control

CC1([CH2][Hg][I])COCC([CH2][Hg][I])O1 (stereo not given)
inactive: dose: 5.0 mg/kg/injection, vehicle: Klucel (hydroxypropylcellulose) (HPC) 100 % of control | dose: 10.0 mg/kg/injection, vehicle: Klucel (hydroxypropylcellulose) (HPC) 102 % of control | dose: 20.0 mg/kg/injection, vehicle: Klucel (hydroxypropylcellulose) (HPC) 86 % of control

C[Si](C)(C)n1nnn(-c2ccccc2)c1=O
inactive: [13] 101 % of control and 103 % of control | [14] 100 % of control and 105 % of control | [9] 119 % of control and 100 % of control | [10] 92 % of control and 95 % of control | [11] 93 % of control and 101 % of control | [12] 95 % of control

CCc1nc(N)nc(N)c1-c1ccc(Cl)c(N=[N+]=[N-])c1
inactive: dose: 12.5 mg/kg/injection, vehicle: distilled water + Tween-80 100 % of control | dose: 25.0 mg/kg/injection, vehicle: distilled water + Tween-80 98 % of control and 102 % of control | dose: 50.0 mg/kg/injection, vehicle: distilled water + Tween-80 108 % of control (2×) and 109 % of control | dose: 100.0 mg/kg/injection, vehicle: distilled water + Tween-80 122 % of control
active: dose: 200.0 mg/kg/injection, vehicle: distilled water + Tween-80 157 % of control and 169 % of control

COC(=O)Nc1nc2ccc(C3(c4ccc(F)cc4)OCCO3)cc2[nH]1
inactive: [2] 93 % of control | [13] 118 % of control | [6] 117 % of control
active: [9] 172 % of control

CC(C)C(NC(=O)OC(C)(C)C)C(=O)ON1C(=O)CCC1=O (stereo not given)
inactive: [9] 91 % of control | [10] 86 % of control

CC1(C)CC2(C)OC2C2(C1)N=NC(=Nc1ccccc1)O2 (stereo not given)
inactive: [14] 96 % of control | [9] 100 % of control | [10] 89 % of control

[Cl][Hg][CH]1CCC2OC1CC[CH]2[Hg][Cl] (stereo not given)
inactive: [1] 97 % of control | dose: 3.12 mg/kg/injection, vehicle: saline with Tween-80 97 % of control | [2] 101 % of control

COC(=O)C[C@](O)(CCC(C)(C)O)C(=O)O[C@@H]1C(OC)=C[C@]23CCCN2CCc2cc4c(cc2[C@H]13)OCO4
active: dose: 0.5 mg/kg/injection, vehicle: saline 154 % of control and 161 % of control | dose: 1.0 mg/kg/injection, vehicle: saline 161 % of control and 168 % of control | dose: 2.0 mg/kg/injection, vehicle: saline 168 % of control
inactive: dose: 0.25 mg/kg/injection, vehicle: saline 124 % of control

Reference: PubChem BioAssay AID200 (DTP/NCI, 2004)
